Several values for one entry are separate records, joined by “and”; a condition that tells them apart may be missing. Equal values may be shown once.
Assays:
MCF-7 = assay: MTT cytotoxicity, MCF-7 breast cancer cells; type: cell-based; details: Homo sapiens, MCF7, adhesive tumor culture, 48 h
From the text: (§1) Cell cultures used in the work: adhesive cultures HBL-100 cells (cells of a normal mammary gland epithelium, immortalized by the SV40 virus and acquired tumorigenicity); MCF-7 breast cancer cells; PC-3 prostate adenocarcinoma cells; HCT-116 colorectal cancer cells; non-small cell lung cancer cells A549; human embryonic kidney cells HEK293; suspension cultures (NCI-H929 and RPMI8226 multiple myeloma cells), K562 chronic myeloid leukemia cells; THP-1 acute monocytic leukemia cells; and Jurkat acute T-cell leukemia cells. We also used several primary cultures of soft tissue sarcomas at 3–4passeges, kindly provided by T.I. Fetisov (The Ethics Committee of N.N. Blokhin NMRCO, protocol code 18-28-09095 and date of approval 28 September 2018).
(§2) Modifications of cell lines: K562/i-S9 is a clone obtained after transfection of K562 cells with the ABCB1 (MDR1) gene-encoding P-glycoprotein [36]. Cells HBL-100/Dox and K562/i-S9_Dox are cells obtained by long-term selection with increasing concentrations of doxorubicin (Sigma-Aldrich, St. Louis, MO, USA) from HBL-100 and K562/i-S9 cells, respectively. MCF-7, A594 cells, and primary cultures of soft tissue sarcomas were cultured in DMEM medium (PanEko, Russia), PC-3 and HCT-116 cells and all suspension cultures in RPMI1640 medium (PanEko, Russia) supplemented with 10% fetal bovine serum (GE Healthcare LifeSciences, USA), and gentamicin at a concentration of 40 μg/mL at 37 °C and 5% CO2.
(§3) Cells MCF-7, PC-3, A549, and HCT-116, and primary cultures of STSwere seeded in 96-well plates, 6 × 10^3 cells per well in 90 μL of culture medium. Suspension cultures were seeded at a concentration of 25 × 10^3 cells per well in 135 μL of medium. The test substances were dissolved in DMSO (Applichem, Council Bluffs, IA, USA) until a concentration of 1 × 10^−^2 M was obtained; for the subsequent dilution of the substances, a serum-free culture medium was used. The next day, for adhesive cultures, and on the same day, for suspension cultures, substances were added to the plates in a volume of 10 μL (adhesive cultures) and 15 μL (suspension cultures) per well at various concentrations; each concentration was added in 3–4 repetitions. The cells were cultured in the presence of substances for 48 h. Then, MTT reagent (PanEko, Moscow, Russia) was added to the wells at a concentration of 5 mg/mL in a volume of 20 μL per well. After 1.5–2 h, the medium with the reagent was removed, and the precipitate of the crystals of formazan was dissolved in 60 μL of DMSO. The optical density was determined using a Multiskan FC spectrophotometer (Thermo Scientific, Waltham, MA, USA) at a wavelength of 540 nm.
(§4) Based on the results of the experiments, a schedule was plotted of the dependence of the percentage of surviving cells (from control) on the concentration of the compound, and the sought concentration IC50 was calculated. The experiments were carried out in 3–4 times.

HEK293 = assay: MTT cytotoxicity, human embryonic kidney cells HEK293; type: cell-based; details: 48 h
From the text: as §1, §3, §4

K562/i-S9 = assay: MTT cytotoxicity, resistant K562/i-S9 cells (ABCB1 transfected); type: cell-based, human; details: for IC50: Homo sapiens, K562i/S9, resistant version, ABCB1 transfected, MTT, 48 h; for resistance of K562/i-S9 cells relative to K562: ratio of IC50 values, Table 4
From the text: (§5) At the next stage, the cytotoxic activity of compounds 1, 2, and 9 (Scheme 2) was investigated on several pairs of cell lines that differ in the expression of P-gp and the method by which they were obtained. K562/i-S9 cells are the result of the ABCB1 transfection into K562 cells, which increases P-gp expression, but should not seriously affect other signaling pathways that could lead to drug resistance. K562/i-S9_Dox cells were obtained from K562/i-S9 by selection with low concentrations of doxorubicin to increase P-gp expression. Subline HBL-100/Dox is a derivative of HBL-100 cells, obtained by long-term selection with increasing concentrations of doxorubicin, which led not only to an increase in P-gp expression, but also to a change in the signaling pathways in this subline. Cells of the K562/i-S9_Dox subline express the highest level of P-gp: 94.7% ± 2.3 (p < 0.0001 relative to K562, and p = 0.04 relative to K562/i-S9). In cells of the K562/i-S9 line, the expression of P-gp is 80% ± 8.2 (p < 0.0001 relative to K562). At 0.7% ± 0.5, P-gp is practically not expressed in K562 cells (Figure 1).
as §2, §3, §4

K562/i-S9_Dox = assay: MTT cytotoxicity, resistant K562/i-S9_Dox cells (P-gp overexpression); type: cell-based, human; details: Homo sapiens, K562; resistant version, doxorubicin selected, MTT, 48 h
From the text: as §5, §2, §3, §4

P-glycoprotein = molecular target: T1, P-glycoprotein (Homo sapiens, UniProt P08183); assay: Release of rhodamine 123 (Rd123) from K562/i-S9_Dox cells, flow cytometry; type: cell-based; details: K562/i-S9_Dox cells after Rd123 release, compound 20 μM, 35 min; release without compound 17.1 ± 6.6
T1 construct: expressed in transfected cells; host or cells: K562/i-S9_Dox (K562 transfected with ABCB1/MDR1, then selected with increasing doxorubicin)
T1 sequence (P08183 whole entry): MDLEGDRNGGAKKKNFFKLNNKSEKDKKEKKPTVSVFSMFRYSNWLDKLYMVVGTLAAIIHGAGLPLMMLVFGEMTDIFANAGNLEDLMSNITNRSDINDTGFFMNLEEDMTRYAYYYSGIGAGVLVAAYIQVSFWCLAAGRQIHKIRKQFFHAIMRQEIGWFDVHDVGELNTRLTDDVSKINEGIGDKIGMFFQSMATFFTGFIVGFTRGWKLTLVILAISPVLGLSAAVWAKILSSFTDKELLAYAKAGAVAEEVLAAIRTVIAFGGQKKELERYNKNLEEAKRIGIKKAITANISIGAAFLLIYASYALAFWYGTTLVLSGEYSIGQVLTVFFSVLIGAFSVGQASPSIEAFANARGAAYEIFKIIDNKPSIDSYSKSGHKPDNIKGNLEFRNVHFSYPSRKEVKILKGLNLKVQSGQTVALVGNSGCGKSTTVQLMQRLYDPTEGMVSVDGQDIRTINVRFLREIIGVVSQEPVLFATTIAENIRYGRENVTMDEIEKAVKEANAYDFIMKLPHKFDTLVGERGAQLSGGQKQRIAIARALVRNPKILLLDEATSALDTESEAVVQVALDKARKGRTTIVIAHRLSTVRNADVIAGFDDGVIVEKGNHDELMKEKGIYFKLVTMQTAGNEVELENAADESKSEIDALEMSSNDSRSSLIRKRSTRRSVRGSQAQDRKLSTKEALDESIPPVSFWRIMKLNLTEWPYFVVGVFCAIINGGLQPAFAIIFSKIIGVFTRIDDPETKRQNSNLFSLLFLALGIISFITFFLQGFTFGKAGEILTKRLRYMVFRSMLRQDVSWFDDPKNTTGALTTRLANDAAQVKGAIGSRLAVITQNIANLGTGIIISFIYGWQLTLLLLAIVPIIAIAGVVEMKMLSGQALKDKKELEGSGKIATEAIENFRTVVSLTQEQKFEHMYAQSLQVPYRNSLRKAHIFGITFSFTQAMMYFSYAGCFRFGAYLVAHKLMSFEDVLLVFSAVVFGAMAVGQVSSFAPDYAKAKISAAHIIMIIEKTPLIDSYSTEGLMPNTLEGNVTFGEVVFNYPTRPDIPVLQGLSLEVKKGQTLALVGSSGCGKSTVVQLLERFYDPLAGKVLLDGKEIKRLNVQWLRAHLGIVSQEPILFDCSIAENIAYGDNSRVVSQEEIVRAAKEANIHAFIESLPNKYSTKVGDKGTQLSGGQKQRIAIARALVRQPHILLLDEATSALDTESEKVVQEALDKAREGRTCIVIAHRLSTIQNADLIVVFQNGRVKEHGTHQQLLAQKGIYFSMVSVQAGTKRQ
Protocol: The principle of the test is as follows: Rd123 is a fluorophore and a known P-gp substrate. During incubation, Rd123 enters the cells by simple diffusion, and then Rd123 begins to interact with P-gp, which releases it from the cell. Cells in which Rd123 is present are stained and can be detected by flow cytometry. The more efficiently P-gp works, the less stained cells in the population remain over time.
The experiment used K562/i-S9_Dox cells with P-gp overexpression. Cells (5 × 10^5 per point) were incubated with Rd123 at a concentration of 3.5 μg/mL for 20 min in serum-free RPMI1640 medium. Furthermore, the efficiency of Rd123 entry into cells was assessed. […] Incubation with substances took place for 35 min in 1 mL of serum-free medium. Then, the cells were precipitated, washed with PBS solution, and the % of stained cells in the population were assessed on a flow cytometer.

| % Luminous Cells (P-glycoprotein) | SMILES | IC50 (MCF-7) [µM] | IC50 (HEK293) [µM] | IC50 (K562/i-S9) [µM] | resistance of K562/i-S9 cells relative to K562 (K562/i-S9) | IC50 (K562/i-S9_Dox) [µM] |
| --- | --- | --- | --- | --- | --- | --- |
| 80% and 80.2 ± 6.2% | C=C1C2=C(C(=O)N1OC)[C@@H](N(CC)CCO)[C@@](C)(O)[C@H](CCCCC)O2 [Compound 9, (2S,3R,4R)-4-[ethyl(2-hydroxyethyl)amino]-3-hydroxy-6-methoxy-3-methyl-7-methylene-2-pentyl-3,4,6,7-tetrahydropyrano[2,3-c]pyrrol-5(2H)-one] | 2.9 ± 1 | 3.8 ± 0.4 | 2.8 ± 0.6 | tendency towards increased sensitivity | 3.3 ± 0.6 |
| 82% and 82.4 ± 3.0% | C=C1C2=C(C(=O)N1OC)[C@@H](N(C)C)[C@@](C)(O)[C@H](CCCCC)O2 [Compound 2, (2S,3R,4R)-4-(dimethylamino)-3-hydroxy-6-methoxy-3-methyl-7-methylene-2-pentyl-3,4,6,7-tetrahydropyrano[2,3-c]pyrrol-5(2H)-one] | 3 ± 0.8 | 4.2 ± 0.3 | 1.6 ± 0.5 |  | 2.4 ± 0.9 |

The next lines start with the compound.

| SMILES | % Luminous Cells (P-glycoprotein) | IC50 (MCF-7) [µM] | IC50 (HEK293) [µM] | IC50 (K562/i-S9) [µM] | resistance of K562/i-S9 cells relative to K562 (K562/i-S9) | IC50 (K562/i-S9_Dox) [µM] |
| --- | --- | --- | --- | --- | --- | --- |
| C=C1C2=C(C(=O)N1OC)[C@@H](N(CCCC)CCCC)[C@@](C)(O)[C@H](CCCCC)O2 [Compound 5, (2S,3R,4R)-4-(dibutylamino)-3-hydroxy-6-methoxy-3-methyl-7-methylene-2-pentyl-3,4,6,7-tetrahydropyrano[2,3-c]pyrrol-5(2H)-one] |  | 7.4 ± 0.5 | 8.2 ± 0.9 |  |  |  |
| CCCCC[C@@H]1OC2=C(C(=O)N(OC)/C2=C\n2cnnc2)C(n2cnnc2)[C@@]1(C)O (stereo partly drawn) [Compound 10] |  | 49 ± 5.3 | 41 ± 2.1 |  |  |  |
| C=C1C2=C(C(=O)N1OC)[C@@H](N1CCCC1)[C@@](C)(O)[C@H](CCCCC)O2 [Compound 1] | 73% and 73.4 ± 6.7% | 3.9 ± 0.8 | 5.1 ± 0.7 | 2.4 ± 0.6 | slightly greater sensitivity | 3.1 ± 0.8 |

From article PMC9030166, “Natural Phaeosphaeride A Derivatives Overcome Drug Resistance of Tumor Cells and Modulate Signaling Pathways” (Pharmaceuticals, 2022)
